Results reported in PubChem BioAssay AID423 (Public Access to Neuroactive & Anticonvulsant Chemical …, 2006).
Active and inactive are the calls of the source.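 The calls were made as follows: active = any mouse or rat spared a seizure in electric shock or chemically induced seizure tests, at any tested dose or timing; inactive = no animal spared a seizure in any test.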

Test system: mouse/rat MES, scMET, 6Hz seizure protection, qualitative
Assay: anticonvulsant seizure protection in rodents, summary, in vivo study, qualitative, MES, scMET, 6Hz, i.p. and oral (AID 423)

Row | SMILES | outcome
1 | CCC1(C)CC(=O)NC1=O (stereo not given) | active; inactive
2 | CCN(CC)CC(=O)Nc1c(C)cccc1C | active
3 | O=C1CC2OCC=C3CN4CCC56c7ccccc7N1C5C2C3CC46 (stereo not given) | active; inactive
4 | CC(=O)OCC[N+](C)(C)C | active; inactive
5 | CCCCC1C(=O)N(c2ccccc2)N(c2ccccc2)C1=O | active; inactive
6 | CCC1(c2ccccc2)C(=O)NC(=O)NC1=O | active
7 | CC(C)[N+](C)(CCOC(=O)C1c2ccccc2Oc2ccccc21)C(C)C | active; inactive
8 | O=C1CN=C(c2ccccc2Cl)c2cc([N+](=O)[O-])ccc2N1 | active
9 | NC(=O)N1c2ccccc2C=Cc2ccccc21 | active
10 | COC(=O)Nc1nc2ccc(C(=O)c3ccccc3)cc2[nH]1 | active; inactive
